Experimental data taken from ChEMBL document CHEMBL1201862, “PubChem BioAssay data set” (2004).
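In this assay, cells in 96-well plates receive the compound at five concentrations for 48 hours. Endpoints are linearly interpolated between the surrounding concentrations. Here, GI50 denotes the concentration required for 50% inhibition of growth.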 Activity calls are given as the source filed them. Cut-off read from the data, not from the text of the source: active = GI50 up to about 1.1 µM and inactive = higher.

How the values were obtained:
Assay in all cases: NCI anticancer screen, dose series, 48 h
ACHN = tested on: ACHN
M14 = tested on: M14
SF-268 = tested on: SF-268
DU-145 = tested on: DU-145
A549 = tested on: A549
BT-549 = tested on: BT-549
NCI-H522 = tested on: NCI-H522
PC-3 = tested on: PC-3
UACC-257 = tested on: UACC-257
HOP-92 = tested on: HOP-92
HL-60 = tested on: HL-60
RPMI-8226 = tested on: RPMI-8226
SW-620 = tested on: SW-620
HT-29 = tested on: HT-29
MDA-MB-435 = tested on: MDA-MB-435
SNB-75 = tested on: SNB-75
LOX IMVI = tested on: LOX IMVI
SNB-19 = tested on: SNB-19
KM12 = tested on: KM12
786-0 = tested on: 786-0
EKVX = tested on: EKVX
CCRF-CEM = tested on: CCRF-CEM
A498 = tested on: A498
HCC 2998 = tested on: HCC 2998
IGROV-1 = tested on: IGROV-1
SK-MEL-28 = tested on: SK-MEL-28
HCT-15 = tested on: HCT-15
RXF 393 = tested on: RXF 393
SK-MEL-2 = tested on: SK-MEL-2
SF-295 = tested on: SF-295
T47D = tested on: T47D
NCI-H460 = tested on: NCI-H460
MOLT-4 = tested on: MOLT-4
OVCAR-8 = tested on: OVCAR-8
UO-31 = tested on: UO-31
UACC-62 = tested on: UACC-62
NCI-H23 = tested on: NCI-H23
Hs-578T = tested on: Hs-578T
NCI-H226 = tested on: NCI-H226
HCT-116 = tested on: HCT-116
SK-MEL-5 = tested on: SK-MEL-5
TK-10 = tested on: TK-10
SR = tested on: SR
SN12C = tested on: SN12C
OVCAR-5 = tested on: OVCAR-5
HOP-62 = tested on: HOP-62
MCF7 = tested on: MCF7
SK-OV-3 = tested on: SK-OV-3
COLO 205 = tested on: COLO 205
OVCAR-3 = tested on: OVCAR-3
Malme-3M = tested on: Malme-3M
CAKI-1 = tested on: CAKI-1
SF-539 = tested on: SF-539
OVCAR-4 = tested on: OVCAR-4
K562 = tested on: K562
U-251 = tested on: U-251
MDA-MB-231 = tested on: MDA-MB-231
NCI/ADR-RES = tested on: NCI/ADR-RES
MDA-N = tested on: MDA-N

O=C(OC(/C=C/c1ccccc1)P1(=O)N(Cc2ccccc2)[C@@H]2CCCC[C@H]2N1Cc1ccccc1)c1ccccc1 (stereo partly specified)
GI50 (ACHN): 3.81 µM (inactive) | GI50 (M14): 3.69 µM (inactive) | GI50 (SF-268): 6.37 µM (inactive) | GI50 (DU-145): 6.75 µM (inactive) | GI50 (A549): 3.94 µM (inactive) | GI50 (BT-549): 4.26 µM (inactive) | GI50 (NCI-H522): 3.17 µM (inactive) | GI50 (PC-3): 3.16 µM (inactive) | GI50 (UACC-257): 3.07 µM (inactive) | GI50 (HOP-92): 2.08 µM (inactive) | GI50 (HL-60): 2.79 µM (inactive) | GI50 (RPMI-8226): 2.21 µM (inactive) | GI50 (SW-620): 4.57 µM (inactive) | GI50 (HT-29): 3.4 µM (inactive) | GI50 (MDA-MB-435): 3.66 µM (inactive) | GI50 (SNB-75): 3.18 µM (inactive) | GI50 (LOX IMVI): 3.57 µM (inactive) | GI50 (SNB-19): 5.43 µM (inactive) | GI50 (KM12): 3.57 µM (inactive) | GI50 (786-0): 4.38 µM (inactive) | GI50 (EKVX): 4.56 µM (inactive) | GI50 (CCRF-CEM): 2.52 µM (inactive) | GI50 (A498): 5.73 µM (inactive) | GI50 (HCC 2998): 4.9 µM (inactive) | GI50 (IGROV-1): 2.9 µM (inactive) | GI50 (SK-MEL-28): 9.82 µM (inactive) | GI50 (HCT-15): 3.44 µM | GI50 (RXF 393): 3.78 µM (inactive) | GI50 (SK-MEL-2): 2.25 µM (inactive) | GI50 (SF-295): 4.09 µM (inactive) | GI50 (T47D): 4.43 µM (inactive) | GI50 (NCI-H460): 2.91 µM (inactive) | GI50 (MOLT-4): 2.15 µM (inactive) | GI50 (OVCAR-8): 3.29 µM (inactive) | GI50 (UO-31): 3.34 µM (inactive) | GI50 (UACC-62): 5.3 µM (inactive) | GI50 (NCI-H23): 3.09 µM (inactive) | GI50 (Hs-578T): 6.67 µM (inactive) | GI50 (NCI-H226): 6.43 µM (inactive) | GI50 (HCT-116): 2.87 µM (inactive) | GI50 (SK-MEL-5): 3.14 µM (inactive) | GI50 (TK-10): 4.82 µM (inactive) | GI50 (SR): 2.81 µM (inactive) | GI50 (SN12C): 3.03 µM (inactive) | GI50 (OVCAR-5): 4.43 µM (inactive) | GI50 (HOP-62): 5.38 µM (inactive) | GI50 (MCF7): 3.52 µM (inactive) | GI50 (SK-OV-3): 5.06 µM (inactive) | GI50 (COLO 205): 2.04 µM (inactive) | GI50 (OVCAR-3): 3.93 µM (inactive) | GI50 (Malme-3M): 3.54 µM (inactive) | GI50 (CAKI-1): 3.56 µM (inactive) | GI50 (SF-539): 3.17 µM (inactive) | GI50 (OVCAR-4): 4.22 µM (inactive) | GI50 (K562): 3.37 µM (inactive) | GI50 (U-251): 3.79 µM (inactive) | GI50 (MDA-MB-231): 2.82 µM (inactive) | GI50 (NCI/ADR-RES): 2.74 µM (inactive) | GI50 (MDA-N): 3.8 µM (inactive)

CCOC(=O)c1cc(-c2ccc(OC)c(OC)c2)c[nH]1
GI50 (ACHN): > 10 µM (inactive) | GI50 (M14): > 10 µM (inactive) | GI50 (SF-268): > 10 µM (inactive) | GI50 (DU-145): > 10 µM (inactive) | GI50 (A549): > 10 µM (inactive) | GI50 (BT-549): > 10 µM (inactive) | GI50 (NCI-H522): > 10 µM (inactive) | GI50 (PC-3): > 10 µM (inactive) | GI50 (UACC-257): > 10 µM (inactive) | GI50 (HOP-92): > 10 µM (inactive) | GI50 (HL-60): > 10 µM (inactive) | GI50 (RPMI-8226): > 10 µM (inactive) | GI50 (HT-29): > 10 µM (inactive) | GI50 (MDA-MB-435): > 10 µM (inactive) | GI50 (SNB-75): 5.08 µM (inactive) | GI50 (LOX IMVI): > 10 µM (inactive) | GI50 (SNB-19): > 10 µM (inactive) | GI50 (KM12): > 10 µM (inactive) | GI50 (786-0): > 10 µM (inactive) | GI50 (EKVX): > 10 µM (inactive) | GI50 (CCRF-CEM): > 10 µM (inactive) | GI50 (A498): > 10 µM (inactive) | GI50 (HCC 2998): > 10 µM (inactive) | GI50 (IGROV-1): > 10 µM (inactive) | GI50 (SK-MEL-28): > 10 µM (inactive) | GI50 (HCT-15): > 10 µM | GI50 (RXF 393): > 10 µM (inactive) | GI50 (SK-MEL-2): > 10 µM (inactive) | GI50 (SF-295): > 10 µM (inactive) | GI50 (T47D): > 10 µM (inactive) | GI50 (NCI-H460): > 10 µM (inactive) | GI50 (MOLT-4): > 10 µM (inactive) | GI50 (OVCAR-8): > 10 µM (inactive) | GI50 (UO-31): > 10 µM (inactive) | GI50 (UACC-62): > 10 µM (inactive) | GI50 (NCI-H23): > 10 µM (inactive) | GI50 (Hs-578T): > 10 µM (inactive) | GI50 (NCI-H226): > 10 µM (inactive) | GI50 (HCT-116): > 10 µM (inactive) | GI50 (SK-MEL-5): > 10 µM (inactive) | GI50 (TK-10): > 10 µM (inactive) | GI50 (SR): > 10 µM (inactive) | GI50 (SN12C): > 10 µM (inactive) | GI50 (OVCAR-5): > 10 µM (inactive) | GI50 (HOP-62): > 10 µM (inactive) | GI50 (MCF7): > 10 µM (inactive) | GI50 (SK-OV-3): > 10 µM (inactive) | GI50 (COLO 205): > 10 µM (inactive) | GI50 (OVCAR-3): > 10 µM (inactive) | GI50 (Malme-3M): > 10 µM (inactive) | GI50 (CAKI-1): > 10 µM (inactive) | GI50 (SF-539): > 10 µM (inactive) | GI50 (OVCAR-4): > 10 µM (inactive) | GI50 (K562): > 10 µM (inactive) | GI50 (U-251): > 10 µM (inactive) | GI50 (MDA-MB-231): > 10 µM (inactive) | GI50 (NCI/ADR-RES): > 10 µM (inactive) | GI50 (MDA-N): > 10 µM (inactive)

OC1c2ccccc2[C@@H]2[C@H]1[C@@H](c1ccccc1)C1(Cc3ccccc3C1O)[C@H]2c1ccccc1 (stereo partly specified)
GI50 (ACHN): 6.37 µM (inactive) | GI50 (M14): 4.75 µM (inactive) | GI50 (SF-268): 6.7 µM (inactive) | GI50 (DU-145): 9.86 µM (inactive) | GI50 (A549): 3.86 µM (inactive) | GI50 (BT-549): 14.7 µM (inactive) | GI50 (NCI-H522): 3.03 µM (inactive) | GI50 (PC-3): 3 µM (inactive) | GI50 (UACC-257): 3.93 µM (inactive) | GI50 (HOP-92): 3.35 µM (inactive) | GI50 (HL-60): 2.01 µM (inactive) | GI50 (RPMI-8226): 2.84 µM (inactive) | GI50 (SW-620): 5.01 µM (inactive) | GI50 (HT-29): 2.29 µM (inactive) | GI50 (MDA-MB-435): 2.82 µM (inactive) | GI50 (SNB-75): 7.73 µM (inactive) | GI50 (LOX IMVI): 2.49 µM (inactive) | GI50 (SNB-19): 13.6 µM (inactive) | GI50 (KM12): 2.77 µM (inactive) | GI50 (786-0): 2.96 µM (inactive) | GI50 (EKVX): 6.35 µM (inactive) | GI50 (CCRF-CEM): 3.13 µM (inactive) | GI50 (A498): 10.1 µM (inactive) | GI50 (HCC 2998): 1.91 µM (inactive) | GI50 (IGROV-1): 4.37 µM (inactive) | GI50 (SK-MEL-28): 9.55 µM (inactive) | GI50 (HCT-15): 4.07 µM | GI50 (RXF 393): 2 µM (inactive) | GI50 (SK-MEL-2): 7.06 µM (inactive) | GI50 (SF-295): 6.75 µM (inactive) | GI50 (T47D): 6.71 µM (inactive) | GI50 (NCI-H460): 3.13 µM (inactive) | GI50 (MOLT-4): 2.45 µM (inactive) | GI50 (OVCAR-8): 5.45 µM (inactive) | GI50 (UO-31): 7.52 µM (inactive) | GI50 (UACC-62): 6.14 µM (inactive) | GI50 (NCI-H23): 6.4 µM (inactive) | GI50 (Hs-578T): 6.93 µM (inactive) | GI50 (NCI-H226): 5.28 µM (inactive) | GI50 (HCT-116): 3.03 µM (inactive) | GI50 (SK-MEL-5): 6.21 µM (inactive) | GI50 (TK-10): 16.1 µM (inactive) | GI50 (SR): 1.11 µM (active) | GI50 (SN12C): 1.77 µM (inactive) | GI50 (OVCAR-5): 11.1 µM (inactive) | GI50 (HOP-62): 10.7 µM (inactive) | GI50 (MCF7): 1.99 µM (inactive) | GI50 (SK-OV-3): 10.9 µM (inactive) | GI50 (COLO 205): 1.84 µM (inactive) | GI50 (OVCAR-3): 2.36 µM (inactive) | GI50 (Malme-3M): 5.53 µM (inactive) | GI50 (CAKI-1): 8.09 µM (inactive) | GI50 (SF-539): 13.4 µM (inactive) | GI50 (OVCAR-4): 4.04 µM (inactive) | GI50 (K562): 3.02 µM (inactive) | GI50 (U-251): 3.92 µM (inactive) | GI50 (MDA-MB-231): 5.22 µM (inactive) | GI50 (NCI/ADR-RES): 5.36 µM (inactive) | GI50 (MDA-N): 3.85 µM (inactive)
